What was measured:
[1] = test system: internalized Salmonella in Caco-2, HD11 and THP-1 cells; assay: S. typhimurium clearance in infected cell lines, summary over the three cell lines; type: cell-based; details: over the three cell lines (Caco-2, HD11, THP-1)
Description: (§1) Effect of the four SMs on S. typhimurium intracellular survival in cells lines: The ability of four SMs to clear S. typhimurium WT […] was evaluated using three cell lines (Caco-2 cells, HD11, and THP-1 cells). The Salmonella intracellular survival as assessed as described (13). A multiplicity of infection “MOI” of 10 was used. Infected cells were treated with 1 μl of SMs (final concentration ranged between 100 μM and 6.25 μM) at 37° C. for 24 hrs in humidified, 5% CO2 incubator. Following incubation, cells were washed once with 150 μl of 1×PBS, lysed with 0.1% Triton-100X, serial ten-fold diluted in 1×PBS, and plated on agar plate. Plates were incubated at 37° C. for 24 hrs to determine the intracellular survival. Cells not infected and not treated, and cells infected and treated with 2% DMSO were used as controls.

C. jejuni 81-176 = assay: Activity on avian pathogens at 200 μM, C. jejuni; type: cell-based, Campylobacter jejuni
Description: FIGS. 1(A-E). Selection of potent Salmonella growth inhibitors. FIG. 1A: High-throughput screening of 4182 SMs against S. typhimurium WT at 200 μM. Negative value: growth inhibition; Positive value: growth stimulation compared to S. typhimurium growth not treated. The black line represents growth inhibition caused by 2% DMSO. FIG. 1B: Activity of 19 S. typhimurium growth inhibitors against additional Salmonella serotypes. Light grey cells: total growth inhibition; dark grey cells: bacterial growth observed; black cells: not determined. FIG. 1C: Dose-response assays of the selected 19 SMs against S. typhimurium WT. […] The black line represents a cut off of nine serotypes killed per SM. FIG. 1E: Activity spectra of the selected four SMs at 200 μM each on several avian-pathogens (Campylobacter jejuni, Escherichia coli APEC, and Mycoplasma gallisepticum) and beneficial gut bacteria (remaining species). E. coli APEC refers to Avian Pathogenic E. coli and includes E. coli O1, O2, O8, O15, O18, O35, O78, O109, and O115. Light grey cells: cidal effect; dark grey cells: bacterial growth observed. Left side: phylogenetic tree based on NCBI taxonomic ID built with PhyloT software.
The selected four SMs were tested on twelve beneficial-commensal gut bacteria at 200 μM (FIG. 1E). […] These four SMs were also growth inhibitors of other avian pathogens at 200 μM (unpublished data, FIG. 1E). […]

[2] = test system: S. typhimurium WT internalized in HD11 cells; assay: S. typhimurium intracellular survival in infected HD11 cells; type: cell-based; details: Salmonella enterica
Description: as §1

C. clostridioforme = assay: Activity spectrum at 200 μM, C. clostridioforme; type: cell-based, Clostridium clostridioforme
Description: (§2) SM activity spectrum: The 128 selected SMs were tested for antimicrobial effects on nine different serotypes frequently implicated in foodborne gastroenteritis outbreaks. Later in the study, the four best SMs were tested against twelve beneficial/commensal gut bacteria. Both screens were performed at 200 μM as described in the primary screening. Growth conditions for each strain are described in Table 1.

E. faecalis = assay: Activity spectrum at 200 μM, E. faecalis; type: cell-based, Enterococcus faecalis
Description: as §2

B. adolescentis = assay: Activity spectrum at 200 μM, B. adolescentis; type: cell-based, Bifidobacterium adolescentis
Description: as §2

[3] = test system: PhoP regulon in S. typhimurium; details: four HTS, PubChem AID #1863, #1981, #2253, #2401; cited from earlier work
B. thetaiolaomicron = assay: Activity spectrum at 200 μM, B. thetaiotaomicron; type: cell-based
Description: as §2

B. longum = assay: Activity spectrum at 200 μM, B. longum; type: cell-based, Bifidobacterium longum
Description: as §2

[4] = test system: biofilm-protected S. typhimurium WT; assay: MBEC-HTP assay on biofilm-protected S. typhimurium; type: cell-based, Salmonella enterica subsp. enterica serovar Typhimurium LT2; details: 18 hrs incubation, 0.2×MBC to 4×MBC
Description: Antimicrobial susceptibility testing on biofilm-protected S. typhimurium using the MBEC™-HTP assay: The antimicrobial efficacy of the four SMs was tested once the S. Typhimurium WT was protected by the […] biofilm matrix. The experiment was performed as described by the manufacturer (innovotech.ca/MBEC_HTPInstructions_Rev1.pdf). Briefly, 150 μl of an overnight suspension of S. typhimurium WT normalized at 0.05 OD600 in LB medium was transferred into each well of a sterile, non-treated, flat bottom 96-wells plate. The plate was covered using the lid containing the pegs (innovotech; 19111), sealed with parafilm, and incubated for 36 hrs at 37° C. […] The plate was incubated for 18 hrs at 37° C., 110 rpm in the dark. After incubation, the lid was transferred into a new 96-wells plate containing 200 μl of sterile water and sonicated for 60 min at room temperature (Aquasonic model 50HT, VWR). Then the supernatant was ten-fold serial diluted, plated in agar plate, and incubated at 37° C. for 36 hrs. The lowest SM concentration giving a complete clearance was considered as the minimum biofilm eradication concentration (MBEC).

L. rhamnosus GG = assay: Activity spectrum at 200 μM, L. rhamnosus GG; type: cell-based, Lactobacillus rhamnosus
Description: as §2

L. brevis = assay: Activity spectrum at 200 μM, L. brevis; type: cell-based, Lactobacillus brevis
Description: as §2

SMILES: CCCCCCCCCCCCCCCC[n+]1ccn(CC#N)c1.[Cl-] [SM3, 1-(cyanomethyl)-3-hexadecyl-1H-imidazol-3-ium chloride]
- concentration clearing internalized Salmonella [1]: 50 µM

SMILES: CC1CCC(C(C)C)C(OC(=O)Cn2c[n+](CC(=O)OC3CC(C)CCC3C(C)C)c3ccccc32)C1.[Cl-] (stereo not drawn) [SM1, 1,3-bis{2-[(2-isopropyl-5-methylcyclohexyl)oxy]-2-oxoethyl}-1H-3,1-benzimidazol-3-ium chloride]
- effect against C. jejuni 81-176 (C. jejuni 81-176): bactericidal effects
- IC50 ([2]; TYPHIMURIUM, HD11, read-out: IC 50% (μm), HD11 cells): < 6.25 µM
- MBC ([2]; S. Typhimurium-infected HD11 cells, 24 hrs treatment): 12.5 µM
- growth effect on C. clostridioforme (C. clostridioforme): no growth inhibition effect

SMILES: CCOc1cc(/C=N/N=C(N)N)ccc1OCc1ccc(Cl)cc1 [SM5, N″-{4-[(4-chlorobenzyl)oxy]-3-ethoxybenzylidene}carbonohydrazonic diamide]
- growth effect on E. faecalis (E. faecalis): no effect
- growth effect on B. adolescentis (B. adolescentis): no effect
- inhibition of the PhoP regulon in S. typhimurium [3]: direct or indirect inhibitor
- growth effect on B. thetaiolaomicron (B. thetaiolaomicron): no effect
- growth effect on B. longum (B. longum): no effect
- concentration killing biofilm-protected Salmonella [4]: 0.4 ×MBC
- growth effect on L. rhamnosus GG (L. rhamnosus GG): no effect
- growth effect on L. brevis (L. brevis): no effect

SMILES: CCCCCCCCCCCCCCCCn1c[n+](C)c2ccccc21.[Br-] [SM4, 1-hexadecyl-3-methyl-1H-3,1-benzimidazol-3-ium bromide]
- concentration clearing internalized Salmonella [1]: 25 µM
- concentration killing biofilm-protected Salmonella [4]: 0.6 ×MBC
